Molecules are shown by their SMILES.

In test [1] the test system is SETVI. The experiment in a line: Pre-emergence herbicidal action against SETVI. The class given is in vivo, Setaria viridis. The following applies: dosage 80 g/ha. The procedure, abridged: (§1)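 Seeds sown in sandy loam, soil-covered; compound sprayed on soil surface pre-emergence. Application: WP/EC, 600–800 l/ha, 0.2% wetting agent. Readout: visual % damage at 3 weeks.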

Test [2] concerns ECHCG. The experiment in a line: Post-emergence herbicidal action against ECHCG. The following applies: dosage 20 g/ha. The class given is in vivo, Echinochloa crus-galli. In short, it runs like this:
(§2)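 Percent herbicidal action is rated by eye about 3 weeks after treatment against untreated controls, where 100% means dead plants and 0% means like controls. Plants in sandy loam are sprayed on green parts at the one-leaf stage with aqueous WP or EC preparations at 600 to 800 l/ha plus 0.2% wetting agent.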

Test [3] has as its system ECHCG. Put plainly: Pre-emergence herbicidal action against ECHCG. The class given is in vivo, Echinochloa crus-galli. The following applies: 80 g/ha. In short, it runs like this:
as §1

The subject of test [4] is AMARE. Put plainly: Post-emergence herbicidal action against AMARE. The class given is in vivo, Amaranthus retroflexus. The following applies: 20 g/ha, visual assessment about 3 weeks after treatment, 100% = plants have died, 0% = like control plants. In short, it runs like this:
as §2

In test [5] the test system is PHBPU. Put plainly: Pre-emergence herbicidal action against PHBPU. The following applies: dosage 80 g/ha. The class given is in vivo, Pharbitis purpurea. The text has this: Seeds of monocotyledonous and dicotyledonous weed plants and crop plants are laid out in sandy loam soil in wood-fiber pots and covered with soil. The compounds of the invention, formulated in the form of wettable powders (WP) or as emulsion concentrates (EC), are then applied to the surface of the covering soil in the form of an aqueous suspension or emulsion at a water application rate equivalent to 600 to 800 l/ha, with addition of 0.2% wetting agent. After the treatment, the pots are placed in a greenhouse and kept under good growth conditions for the trial plants. The damage to the test plants is scored visually after a test period of 3 weeks by comparison with untreated controls (herbicidal activity in percent (%): 100% activity=the plants have died, 0% activity=like control plants). […] The tables below illustrate, in an illustrative manner, the post-emergence herbicidal action of the compounds of the invention, the herbicidal activity being stated in percent.

In test [6] the test system is AMARE. Put plainly: Pre-emergence herbicidal action against AMARE. The class given is in vivo, Amaranthus retroflexus. The procedure, abridged:
as §1

Test [7] deals with ABUTH. The experiment in a line: Post-emergence herbicidal action against ABUTH. The class given is in vivo, Abutilon theophrasti. The following applies: visual assessment about 3 weeks after treatment vs untreated controls. In short, it runs like this:
as §2

For test [8], the system named is SETVI. Put plainly: Post-emergence herbicidal action against SETVI. The class given is in vivo, Setaria viridis. The following applies: dosage 20 g/ha. In short, it runs like this:
as §2

The test system of test [9] is ABUTH. The experiment in a line: Pre-emergence herbicidal action against ABUTH. The following applies: for Pre-emergence action against ABUTH (herbicidal activity): 80 g/ha, scored visually after 3 weeks vs untreated controls (100% = plants have died, 0% = like control plants); for Pre-emergence action against ABUTH (herbicidal activity in percent): dosage 20 g/ha, scored visually after 3 weeks vs untreated controls, 100% = plants have died, 0% = like control plants. The class given is in vivo, Abutilon theophrasti. The procedure, abridged: as §1

Test [10] concerns ALOMY. Put plainly: Pre-emergence herbicidal action against ALOMY. The following applies: 80 g/ha, pre-emergence, scored visually after 3 weeks vs untreated controls (100% = plants have died, 0% = like control plants). The class given is in vivo, Alopecurus myosuroides. The procedure, abridged:
as §1

The subject of test [11] is MATIN. Put plainly: Pre-emergence herbicidal action against MATIN. The class given is in vivo, Matricaria inodora. The procedure, abridged:
as §1

Test [12] concerns ALOMY. The experiment in a line: Post-emergence herbicidal action against ALOMY. The class given is in vivo, Alopecurus myosuroides. The following applies: visual assessment about 3 weeks after treatment vs untreated controls. In short, it runs like this: as §2
For test [13], the system named is VIOTR. Put plainly: Pre-emergence herbicidal action against VIOTR. The class given is in vivo, Viola tricolor. In short, it runs like this:
as §1

For test [14], the system named is AVEFA. Put plainly: Pre-emergence herbicidal action against AVEFA. The class given is in vivo, Avena fatua. The following applies: 80 g/ha, pre-emergence. The procedure, abridged: as §1
Test [15] has as its system MATIN. Put plainly: Post-emergence herbicidal action against MATIN. The class given is in vivo, Matricaria inodora. In short, it runs like this: as §2
Test [16] concerns VIOTR. Put plainly: Post-emergence herbicidal action against VIOTR. The class given is in vivo, Viola tricolor. In short, it runs like this:
as §2

Where [17] appears, read: 20 g/ha, scored visually after 3 weeks vs untreated controls, 100% = plants have died, 0% = like control plants.
[18] abbreviates: 80 g/ha, scored visually after 3 weeks vs untreated controls (100% = plants have died, 0% = like control plants).

As for `COCCNC(=O)c1c(Br)ccc(C(=O)Nc2nnnn2C)c1Cl` [Example 1-186], the “Pre-emergence action against SETVI in %” value in test [1] stood at 80%. Besides, the “Post-emergence action against ECHCG in %” value in test [2] is reported as 90%. Further, the “Pre-emergence action against ECHCG in %” value in [3] amounted to 80%. Also, the “Post-emergence action at 20 g/ha against AMARE in %” value in [4] is 100%. For the same molecule, the “Pre-emergence action against PHBPU in %” value in test [5] was found to be 80%. Moreover, the “Pre-emergence action against AMARE in %” value in test [6] (setting [17]) turned out to be 80%; in [6] (setting [18]) it was 100%. In addition, the “Post-emergence action against ABUTH in %” value in test [7] (dosage 5 g/ha) and in test [7] (dosage 20 g/ha) was 90% in each case. Besides, the “Post-emergence action against SETVI in %” value in [8] came to 80%. Also, the “Pre-emergence action against ABUTH (herbicidal activity)” value in test [9] amounted to 100%. In addition, the “Pre-emergence action against ABUTH (herbicidal activity in percent)” value in test [9] amounted to 100%. Besides, the “Pre-emergence action against ALOMY (herbicidal activity)” value in test [10] is 90%. Also, in test [11] (dosage 80 g/ha), the “Pre-emergence action against MATIN in %” value turned out to be 90%. Moreover, the “Post-emergence action against ALOMY in %” value in [12] (dosage 5 g/ha) amounted to 80%; in [12] (dosage 20 g/ha), 90%.
With `CCn1nnnc1NC(=O)c1ccc(Br)c(C(=O)NC(C)C)c1Cl` [Example 2-185], the “Pre-emergence action against SETVI in %” value in test [1] was 100%. In test [2], the “Post-emergence action against ECHCG in %” value was 100%. Besides, the “Pre-emergence action against ECHCG in %” value in [3] came to 90%. Besides, in test [4], the “Post-emergence action at 20 g/ha against AMARE in %” value was found to be 100%. For the same molecule, the “Pre-emergence action against PHBPU in %” value in test [5] came to 100%. The “Pre-emergence action against AMARE in %” value in test [6] (setting [17]) and in [6] (setting [18]) was 100% in each case. Besides, the “Pre-emergence action against VIOTR in %” value is 80% in [13] (dosage 20 g/ha) and 100% in [13] (dosage 80 g/ha). For the same molecule, in test [14], the “Pre-emergence action against AVEFA in %” value is 100%. Moreover, the “Post-emergence action against MATIN in %” value in test [15] (dosage 5 g/ha) amounted to 80%; in test [15] (dosage 20 g/ha) it was 90%. Further, the figures for the “Post-emergence action against ABUTH in %” value in test [7] (dosage 5 g/ha) and in [7] (dosage 20 g/ha) were 90% and 100%, respectively. For the same molecule, the “Post-emergence action against SETVI in %” value in [8] turned out to be 80%. Besides, the “Post-emergence action against VIOTR in %” value in test [16] (5 g/ha) and in test [16] (20 g/ha) was 100% in each case. The “Pre-emergence action against ABUTH (herbicidal activity)” value in test [9] was 100%. In addition, in test [9], the “Pre-emergence action against ABUTH (herbicidal activity in percent)” value was 100%. Further, the “Pre-emergence action against ALOMY (herbicidal activity)” value in test [10] is listed as 90%. Further, the “Pre-emergence action against MATIN in %” value in test [11] (dosage 20 g/ha) and in [11] (dosage 80 g/ha) was 100% in each case. Further, the “Post-emergence action against ALOMY in %” value in test [12] (dosage 20 g/ha) was found to be 90%.

For the origin of these results see patent US12655116B2, “Substituted isophthalic acid diamides” (Bayer Aktiengesellschaft, priority 2020, dated 2026).
